Assay results: PubChem BioAssay (NCI)
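Five concentrations, 48 hours, 96-well plates. At the TGI there is no net growth.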

Key:
Assay in all cases: growth of human tumour cells (NCI), 48 h
ACHN renal = tested on: ACHN renal
HCT-15 colon = tested on: HCT-15 colon
HOP-92 NSCLC = tested on: HOP-92 NSCLC
HT29 colon = tested on: HT29 colon
KM12 colon = tested on: KM12 colon
MCF7 breast = tested on: MCF7 breast
MDA-MB-435 = tested on: MDA-MB-435
MOLT-4 leukemia = tested on: MOLT-4 leukemia
NCI-H226 lung = tested on: NCI-H226 lung
NCI-H23 lung = tested on: NCI-H23 lung
NCI-H460 lung = tested on: NCI-H460 lung
NCI-H522 lung = tested on: NCI-H522 lung
OVCAR-3 ovarian = tested on: OVCAR-3 ovarian
PC-3 prostate = tested on: PC-3 prostate
RPMI-8226 leukemia = tested on: RPMI-8226 leukemia
RXF 393 renal = tested on: RXF 393 renal
SF-295 CNS = tested on: SF-295 CNS
SK-MEL-2 melanoma = tested on: SK-MEL-2 melanoma
UACC-62 melanoma = tested on: UACC-62 melanoma
UO-31 renal = tested on: UO-31 renal

| Structure (SMILES) | TGI (ACHN renal) | TGI (HCT-15 colon) | TGI (HOP-92 NSCLC) | TGI (HT29 colon) | TGI (KM12 colon) | TGI (MCF7 breast) | TGI (MDA-MB-435) | TGI (MOLT-4 leukemia) | TGI (NCI-H226 lung) | TGI (NCI-H23 lung) | TGI (NCI-H460 lung) | TGI (NCI-H522 lung) | TGI (OVCAR-3 ovarian) | TGI (PC-3 prostate) | TGI (RPMI-8226 leukemia) | TGI (RXF 393 renal) | TGI (SF-295 CNS) | TGI (SK-MEL-2 melanoma) | TGI (UACC-62 melanoma) | TGI (UO-31 renal) |
| --- | --- | --- | --- | --- | --- | --- | --- | --- | --- | --- | --- | --- | --- | --- | --- | --- | --- | --- | --- | --- |
| COC(=O)C1CCC(=O)N1CN(C(C)=O)c1cc(OC)ccc1OC (stereo not given) | > 100 µM | > 100 µM | > 100 µM | > 100 µM | > 100 µM | > 100 µM | > 100 µM | > 100 µM | > 100 µM | > 100 µM | > 100 µM | > 100 µM | > 100 µM | > 100 µM | > 100 µM | > 100 µM | > 100 µM | > 100 µM | > 100 µM | > 100 µM |
| c1ccc2c(c1)nn1c3ccc4nonc4c3[n-][n+]21 | > 100 µM | > 100 µM | > 100 µM | > 100 µM | > 100 µM | > 100 µM | > 100 µM | > 100 µM | > 100 µM | > 100 µM | > 100 µM | > 100 µM | > 100 µM | > 100 µM | > 100 µM | > 100 µM | > 100 µM | > 100 µM | > 100 µM | > 100 µM |
| CC(C)(C)c1cc2c(c(C(C)(C)C)c1O)CC(=O)O2 | 55.5 µM | > 100 µM | 17.9 µM | > 100 µM | 64.6 µM | > 100 µM | 66 µM | > 100 µM | 74.7 µM | 59.3 µM | > 100 µM | > 100 µM | 50.7 µM | 76.1 µM | 65 µM | 54.5 µM | 85.7 µM | 47.7 µM | 77.5 µM | 66.6 µM |
| CC(C)c1ccc(C2NC(=S)NC3=C2c2ccccc2C3=O)cc1 (stereo not given) | > 55.9 µM | > 51.9 µM | 48.3 µM | > 59 µM | > 58.7 µM | 23.1 µM | 21.4 µM | > 65 µM | > 64.6 µM | > 59.2 µM | > 67.3 µM | 41.9 µM | > 56.7 µM | 23.5 µM | > 62.4 µM | 23.9 µM | > 52.4 µM | 41.7 µM | > 52.8 µM | > 58.2 µM |
| O=C1c2c(O)cc(O)cc2C(C2OC(CO)C(O)C(O)C2O)c2cc(CO)cc(O)c21 (stereo not given) | > 100 µM | > 100 µM | > 100 µM | > 100 µM | – | > 100 µM | > 100 µM | > 100 µM | > 100 µM | > 100 µM | > 100 µM | – | > 100 µM | > 100 µM | > 100 µM | – | > 100 µM | – | > 100 µM | > 100 µM |
| CCOC(=O)c1nc2ccccc2nc1NCc1ccc(OC)c(OC)c1 | > 100 µM | > 100 µM | > 100 µM | > 100 µM | > 100 µM | > 100 µM | > 100 µM | > 100 µM | > 100 µM | > 100 µM | > 100 µM | > 100 µM | > 100 µM | > 100 µM | > 100 µM | > 100 µM | > 100 µM | – | > 100 µM | > 100 µM |
